Active and inactive are the calls of the source. The calls are words filed in the database; no cut-off is given here.
Columns and labels:
A2058 [1] = test: Antitumor activity against human A2058 cells harboring BRAF V600E/PTEN deletion mutant xenografted in mouse assessed as decrease in tumor volume at 1.5 mg/kg, po administered once daily for 21 days in presence of GDC-0973 by digital calipers analysis; type: functional, organism-based; settings: time 21.0 day
A2058 [2] = test: Antitumor activity against human A2058 cells harboring BRAF V600E/PTEN deletion mutant xenografted in mouse assessed as decrease in tumor volume at 10 mg/kg, po administered once weekly for 21 days in presence of GDC-0973 by digital calipers analysis; type: functional, organism-based; settings: time 21.0 day
A2058 [3] = test: Antitumor activity against human A2058 cells xenografted in mouse assessed as tumor growth inhibition at 30 mg/kg, po administered once a day for 21 days in presence of (S)-(3,4-difluoro-2-((2-fluoro-4-iodophenyl)amino)phenyl)(3-hydroxy-3-(piperidin-2-yl)azetidin-1-yl)methanone; type: functional; settings: A2058, 504 h, time 21 day, read-out: TGI
NCI-H2122 [4] = test: Antitumor activity against human NCI-H2122 cells xenografted in mouse assessed as tumor growth inhibition at 30 mg/kg, po administered once a day for 21 days in presence of (S)-(3,4-difluoro-2-((2-fluoro-4-iodophenyl)amino)phenyl)(3-hydroxy-3-(piperidin-2-yl)azetidin-1-yl)methanone; type: functional; settings: NCI-H2122, 504 h, time 21 day, read-out: TGI
[5] = Antitumor activity against human A375.X1 cells xenografted in mouse assessed as tumor growth inhibition at 30 mg/kg, po administered once a day for 21 days; type: functional; settings: A375.X1, 504 h, time 21 day, read-out: TGI
DLD-1 [6] = test: Antitumor activity against human DLD-1 cells xenografted in mouse assessed as tumor growth inhibition at 30 mg/kg, po administered once a day for 21 days in presence of (S)-(3,4-difluoro-2-((2-fluoro-4-iodophenyl)amino)phenyl)(3-hydroxy-3-(piperidin-2-yl)azetidin-1-yl)methanone; type: functional; settings: DLD-1, 504 h, time 21 day, read-out: TGI
[7] = Antitumor activity against human A375.X1 cells xenografted in mouse assessed as tumor growth inhibition at 100 mg/kg, po administered once a day for 21 days in presence of (S)-(3,4-difluoro-2-((2-fluoro-4-iodophenyl)amino)phenyl)(3-hydroxy-3-(piperidin-2-yl)azetidin-1-yl)methanone; type: functional; settings: A375.X1, 504 h, time 21 day, read-out: TGI
A2058 [8] = test: Antitumor activity against human A2058 cells xenografted in mouse assessed as tumor growth inhibition at 150 mg/kg, po administered every third day for 21 days; type: functional; settings: A2058, 504 h, time 21 day, read-out: TGI
NCI-H2122 [9] = test: Antitumor activity against human NCI-H2122 cells xenografted in mouse assessed as tumor growth inhibition at 150 mg/kg, po administered […] for 21 days in presence of (S)-(3,4-difluoro-2-((2-fluoro-4-iodophenyl)amino)phenyl)(3-hydroxy-3-(piperidin-2-yl)azetidin-1-yl)methanone; type: functional; settings: NCI-H2122, 504 h, time 21 day, read-out: TGI
DLD-1 [10] = test: Antitumor activity against human DLD-1 cells xenografted in mouse assessed as tumor growth inhibition at 50 mg/kg, po administered every third day for 21 days; type: functional; settings: DLD-1, 504 h, time 21 day, read-out: TGI
NCI-H2122 [11] = test: Antitumor activity against human NCI-H2122 cells xenografted in mouse assessed as tumor growth inhibition at 100 mg/kg, po administered once a day for 21 days; type: functional; settings: NCI-H2122, 504 h, time 21 day, read-out: TGI
NCI-H2122 [12] = test: Antitumor activity against human NCI-H2122 cells xenografted in mouse assessed as tumor growth inhibition at 150 mg/kg, po administered […] for 21 days; type: functional; settings: NCI-H2122, 504 h, time 21 day, read-out: TGI
DLD-1 [13] = test: Antitumor activity against human DLD-1 cells xenografted in mouse assessed as tumor growth inhibition at 30 mg/kg, po administered once a day for 21 days; type: functional; settings: DLD-1, 504 h, time 21 day, read-out: TGI
[14] = Antitumor activity against human A375.X1 cells xenografted in mouse assessed as tumor growth inhibition at 30 mg/kg, po administered once a day for 21 days in presence of (S)-(3,4-difluoro-2-((2-fluoro-4-iodophenyl)amino)phenyl)(3-hydroxy-3-(piperidin-2-yl)azetidin-1-yl)methanone; type: functional; settings: A375.X1, 504 h, time 21 day, read-out: TGI
A2058 [15] = test: Antitumor activity against human A2058 cells xenografted in mouse assessed as tumor growth inhibition at 30 mg/kg, po administered once a day for 21 days; type: functional; settings: A2058, 504 h, time 21 day, read-out: TGI
[16] = Antitumor activity against human A375.X1 cells xenografted in mouse assessed as tumor growth inhibition at 100 mg/kg, po administered once a day for 21 days; type: functional; settings: A375.X1, 504 h, time 21 day, read-out: TGI
[17] = Antitumor activity against human A375.X1 cells xenografted in mouse assessed as tumor growth inhibition at 150 mg/kg, po administered every third day for 21 days; type: functional; settings: A375.X1, 504 h, time 21 day, read-out: TGI
A2058 [18] = test: Antitumor activity against human A2058 cells xenografted in mouse assessed as tumor growth inhibition at 100 mg/kg, po administered once a day for 21 days; type: functional; settings: A2058, 504 h, time 21 day, read-out: TGI
NCI-H2122 [19] = test: Antitumor activity against human NCI-H2122 cells xenografted in mouse assessed as tumor growth inhibition at 100 mg/kg, po administered once a day for 21 days in presence of (S)-(3,4-difluoro-2-((2-fluoro-4-iodophenyl)amino)phenyl)(3-hydroxy-3-(piperidin-2-yl)azetidin-1-yl)methanone; type: functional; settings: NCI-H2122, 504 h, time 21 day, read-out: TGI
DLD-1 [20] = test: Antitumor activity against human DLD-1 cells xenografted in mouse assessed as tumor growth inhibition at 50 mg/kg, po administered every third day for 21 days in presence of (S)-(3,4-difluoro-2-((2-fluoro-4-iodophenyl)amino)phenyl)(3-hydroxy-3-(piperidin-2-yl)azetidin-1-yl)methanone; type: functional; settings: DLD-1, 504 h, time 21 day, read-out: TGI
[21] = Antitumor activity against human A375.X1 cells xenografted in mouse assessed as tumor growth inhibition at 150 mg/kg, po administered every third day for 21 days in presence of (S)-(3,4-difluoro-2-((2-fluoro-4-iodophenyl)amino)phenyl)(3-hydroxy-3-(piperidin-2-yl)azetidin-1-yl)methanone; type: functional; settings: A375.X1, 504 h, time 21 day, read-out: TGI
NCI-H2122 [22] = test: Antitumor activity against human NCI-H2122 cells xenografted in mouse assessed as tumor growth inhibition at 30 mg/kg, po administered once a day for 21 days; type: functional; settings: NCI-H2122, 504 h, time 21 day, read-out: TGI

With `Cc1c(CN2CCN(C(=O)[C@H](C)O)CC2)sc2c(N3CCOCC3)nc(-c3cnc(N)nc3)nc12` the Activity (A2058 [1]) was “Active” and the Activity (A2058 [2]) was “Active”.
In the case of `CS(=O)(=O)N1CCN(Cc2cc3nc(-c4cccc5[nH]ncc45)nc(N4CCOCC4)c3s2)CC1` [PICTILISIB], the inhibition in vivo at 30 mg/kg (A2058 [3]) is reported as 73%, the inhibition in vivo at 30 mg/kg (NCI-H2122 [4]) is reported as 75% and the inhibition in vivo at 30 mg/kg [5] is reported as 23%. The inhibition in vivo at 30 mg/kg (DLD-1 [6]) was 88%, the inhibition in vivo at 100 mg/kg [7] was 122% and the inhibition in vivo at 150 mg/kg (A2058 [8]) was 50%. It also gave an inhibition in vivo at 150 mg/kg (NCI-H2122 [9]) of 87%, an inhibition in vivo at 50 mg/kg (DLD-1 [10]) of 13% and an inhibition in vivo at 100 mg/kg (NCI-H2122 [11]) of 91%. It also gave an inhibition in vivo at 150 mg/kg (NCI-H2122 [12]) of 43%, an inhibition in vivo at 30 mg/kg (DLD-1 [13]) of 63% and an inhibition in vivo at 30 mg/kg [14] of 69%. For the same molecule, the inhibition in vivo at 30 mg/kg (A2058 [15]) was 24%, the inhibition in vivo at 100 mg/kg [16] was -2% and the inhibition in vivo at 150 mg/kg [17] was 57%. For the same molecule, the inhibition in vivo at 100 mg/kg (A2058 [18]) was 58%, the inhibition in vivo at 100 mg/kg (NCI-H2122 [19]) was 156% and the inhibition in vivo at 50 mg/kg (DLD-1 [20]) was 72%. For the same molecule, the inhibition in vivo at 150 mg/kg [21] was 118% and the inhibition in vivo at 30 mg/kg (NCI-H2122 [22]) was 63%.

Reference: ChEMBL document CHEMBL5678805, “Intermittent administration of MEK inhibitor GDC-0973 plus PI3K inhibitor GDC-0941 triggers robust apoptosis and tumor growth inhibition” (Cancer Res, 2012)
